Converted amounts (≈) assume the structure as drawn.
What was measured:
Staphylococcus aureus [1] = assay: Antimicrobial activity against Staphylococcus aureus ATCC 29213 assessed as inhibition of microbial growth incubated for 24 hrs by two-fold serial dilution assay; assay type: functional
Bacillus subtilis [2] = assay: Antimicrobial activity against Bacillus subtilis ATCC 6633 assessed as inhibition of microbial growth incubated for 24 hrs by two-fold serial dilution assay; assay type: functional
Priestia megaterium = assay: Antimicrobial activity against Bacillus megaterium ATCC 9885 assessed as inhibition of microbial growth incubated for 24 hrs by two-fold serial dilution assay; assay type: functional
Micrococcus luteus = assay: Antimicrobial activity against Sarcina lutea assessed as inhibition of microbial growth incubated for 24 hrs by two-fold serial dilution assay; assay type: functional
Klebsiella pneumoniae [3] = assay: Antimicrobial activity against Klebsiella pneumoniae ATCC 13883 assessed as inhibition of microbial growth incubated for 24 hrs by two-fold serial dilution assay; assay type: functional
Pseudomonas aeruginosa [4] = assay: Antimicrobial activity against Pseudomonas aeruginosa ATCC 27953 assessed as inhibition of microbial growth incubated for 24 hrs by two-fold serial dilution assay; assay type: functional
Escherichia coli [5] = assay: Antimicrobial activity against Escherichia coli ATCC 25922 assessed as inhibition of microbial growth incubated for 24 hrs by two-fold serial dilution assay; assay type: functional
Candida albicans = assay: Antimicrobial activity against Candida albicans NRRL Y-477 assessed as inhibition of microbial growth incubated for 48 hrs by two-fold serial dilution assay; assay type: functional
Staphylococcus aureus [6] = assay: Antibacterial activity against Staphylococcus aureus assessed as inhibition of bacterial growth by broth microdilution method; assay type: functional
Klebsiella pneumoniae [7] = assay: Antibacterial activity against Klebsiella pneumoniae assessed as inhibition of bacterial growth by broth microdilution method; assay type: functional
Escherichia coli [8] = assay: Antibacterial activity against Escherichia coli assessed as inhibition of bacterial growth by broth microdilution method; assay type: functional
Pseudomonas aeruginosa [9] = assay: Antibacterial activity against Pseudomonas aeruginosa assessed as inhibition of bacterial growth by broth microdilution method; assay type: functional
Escherichia coli [10] = assay: Antibacterial activity against Escherichia coli JW5503 harboring tolC mutant assessed as inhibition of bacterial growth incubated for 16 to 20 hrs by two-fold serial dilution assay; assay type: functional; conditions: time 16-20 hrs
Vibrio cholerae = assay: Antibacterial activity against Vibrio cholerae assessed as inhibition of bacterial growth incubated for 24 hrs by broth microdilution method; assay type: functional
Shigella flexneri = assay: Antibacterial activity against Shigella flexneri assessed as inhibition of bacterial growth incubated for 24 hrs by broth microdilution method; assay type: functional
Staphylococcus aureus [11] = assay: Antibacterial activity against Staphylococcus aureus assessed as inhibition of bacterial growth incubated for 24 hrs by broth microdilution method; assay type: functional
Staphylococcus aureus [12] = assay: Antibacterial activity against Staphylococcus aureus TISTR 1466 assessed as inhibition of bacterial growth by two-fold serial dilution method; assay type: functional
Staphylococcus aureus [13] = assay: Antibacterial activity against methicillin-resistant Staphylococcus aureus SK1 assessed as inhibition of bacterial growth by two-fold serial dilution method; assay type: functional
Escherichia coli [14] = assay: Antibacterial activity against Escherichia coli TISTR 780 assessed as inhibition of bacterial growth by two-fold serial dilution method; assay type: functional
Salmonella typhimurium = assay: Antibacterial activity against Salmonella typhimurium TISTR 292 assessed as inhibition of bacterial growth by two-fold serial dilution method; assay type: functional, Salmonella enterica subsp. enterica serovar Typhimurium; conditions: Salmonella enterica
Pythium = assay: Antifungal activity against Pythium assessed as zone of inhibition incubated upto 9 days by disc diffusion assay; assay type: functional; conditions: time <= 9 day
Staphylococcus aureus [15] = assay: Antibacterial activity against Staphylococcus aureus assessed as inhibition of bacterial growth; assay type: functional, organism-based
Staphylococcus aureus [16] = assay: Antibacterial activity against Staphylococcus aureus assessed as zone of inhibition by agar-disc diffusion method; assay type: functional
Bacillus subtilis [17] = assay: Antibacterial activity against Bacillus subtilis assessed as zone of inhibition by agar-disc diffusion method; assay type: functional

How did the MIC (Staphylococcus aureus [1]) turn out when `O=C(NN1C(=O)c2ccccc2C1=O)c1ccc(-n2c3c(c4ccccc42)CCCC3)cc1` was run?
Its MIC is 25 µg/mL.

And the MIC (Bacillus subtilis [2])?
Its MIC is 25 µg/mL.

What about the MIC (Priestia megaterium) of the same molecule?
Its MIC is 25 µg/mL.

What about the MIC (Micrococcus luteus) of the same molecule?
The MIC was 25 µg/mL.

What about the MIC (Klebsiella pneumoniae [3]) of the same molecule?
Its MIC is 25 µg/mL.

And the MIC (Pseudomonas aeruginosa [4])?
Its MIC is 25 µg/mL.

What about the MIC (Escherichia coli [5]) of the same molecule?
Its MIC is 25 µg/mL.

And the MIC (Candida albicans)?
The MIC was 25 µg/mL.

How did the MIC (Staphylococcus aureus [1]) turn out when `O=C(NN1C(=O)C(Cl)=C(Cl)C1=O)c1ccc(-n2c3c(c4ccccc42)CCCC3)cc1` was run?
The MIC was 25 µg/mL.

What about the MIC (Bacillus subtilis [2]) of the same molecule?
Its MIC is 25 µg/mL.

What about the MIC (Priestia megaterium) of the same molecule?
The MIC was 25 µg/mL.

And the MIC (Micrococcus luteus)?
The MIC was 25 µg/mL.

And the MIC (Klebsiella pneumoniae [3])?
The MIC was 25 µg/mL.

And the MIC (Pseudomonas aeruginosa [4])?
Its MIC is 25 µg/mL.

What about the MIC (Escherichia coli [5]) of the same molecule?
The MIC was 25 µg/mL.

What about the MIC (Candida albicans) of the same molecule?
The MIC was 25 µg/mL.

How did the MIC90 (Staphylococcus aureus [6]) turn out when `CC(C)=CCCC1(C)C=Cc2c(c(C)cc3c2[nH]c2cc(O)ccc23)O1` (stereo not given) was run?
Its MIC90 is 3.12 µg/mL (≈ 8.98 µM).

And the MIC90 (Klebsiella pneumoniae [7])?
Its MIC90 is 3.12 µg/mL (≈ 8.98 µM).

And the MIC90 (Escherichia coli [8])?
The MIC90 was > 100 µg/mL.

What about the MIC90 (Pseudomonas aeruginosa [9]) of the same molecule?
Its MIC90 is > 100 µg/mL.

With `NC1CCCc2c1[nH]c1ccc(Cl)cc21` (stereo not given) as the molecule, how does the MIC (Escherichia coli [10]) read?
Its MIC is 37 µg/mL (≈ 168 µM).

What does the source list for `COc1cc(C=O)c(CC=C(C)C)c2c1[nH]c1ccccc12` [EKEBERGININE]?
MIC (Vibrio cholerae): 32 µg/mL (≈ 109 µM); MIC (Shigella flexneri): 32 µg/mL (≈ 109 µM); MIC (Staphylococcus aureus [11]): 32 µg/mL (≈ 109 µM)

With `CC(C)=CCc1c(O)ccc2[nH]c3cc(O)c(C=O)cc3c12` as the molecule, how does the MIC (Staphylococcus aureus [12]) read?
Its MIC is 64 µg/mL (≈ 217 µM).

And the MIC (Staphylococcus aureus [13])?
Its MIC is 64 µg/mL (≈ 217 µM).

What about the MIC (Escherichia coli [14]) of the same molecule?
Its MIC is 64 µg/mL (≈ 217 µM).

And the MIC (Salmonella typhimurium)?
Its MIC is 64 µg/mL (≈ 217 µM).

How did the MIC (Escherichia coli [10]) turn out when `NCC1CCCc2c1[nH]c1ccc(Cl)cc21` (stereo not given) was run?
The MIC was 21.1 µg/mL (≈ 89.9 µM).

What does the source list for `C=CC(=C)c1c(C(=O)OC)cc(O)c2[nH]c3ccccc3c12`?
MIC (Staphylococcus aureus [12]): 4 µg/mL (≈ 13.6 µM); MIC (Staphylococcus aureus [13]): 4 µg/mL (≈ 13.6 µM)

For `COc1cc(C)c(CC=C(C)C)c2c1[nH]c1ccccc12`, which MIC (Vibrio cholerae) is on record?
The MIC was 32 µg/mL (≈ 115 µM).

What about the MIC (Shigella flexneri) of the same molecule?
Its MIC is 32 µg/mL (≈ 115 µM).

And the MIC (Staphylococcus aureus [11])?
The MIC was 32 µg/mL (≈ 115 µM).

How did the “inhibition zone (IZ)” value (Pythium) turn out when `COC(=O)c1cc2c(cc1OC)[nH]c1ccccc12` [CLAUSINE L] was run?
Its value is 10.2 mm.

`CC1(C)C=Cc2c(ccc3[nH]c4ccc(C=O)cc4c23)O1` was tested. Which MIC (Staphylococcus aureus [12]) did it give?
The MIC was 64 µg/mL (≈ 231 µM).

And the MIC (Staphylococcus aureus [13])?
The MIC was 64 µg/mL (≈ 231 µM).

What about the MIC (Escherichia coli [14]) of the same molecule?
The MIC was 64 µg/mL (≈ 231 µM).

What about the MIC (Salmonella typhimurium) of the same molecule?
Its MIC is 64 µg/mL (≈ 231 µM).

Which results are given for `CC1(C)Oc2ccc3[nH]c4cc(O)c(C=O)cc4c3c2[C@@H](O)[C@H]1O`?
MIC (Staphylococcus aureus [12]): 64 µg/mL (≈ 196 µM); MIC (Staphylococcus aureus [13]): 64 µg/mL (≈ 196 µM); MIC (Escherichia coli [14]): 64 µg/mL (≈ 196 µM); MIC (Salmonella typhimurium): 64 µg/mL (≈ 196 µM)

How did the MIC (Staphylococcus aureus [1]) turn out when `CSC(=S)NNC(=O)c1ccc(-n2c3c(c4ccccc42)CCCC3)cc1` was run?
Its MIC is 25 µg/mL.

What about the MIC (Bacillus subtilis [2]) of the same molecule?
The MIC was 25 µg/mL.

And the MIC (Priestia megaterium)?
Its MIC is 25 µg/mL.

What about the MIC (Micrococcus luteus) of the same molecule?
The MIC was 25 µg/mL.

And the MIC (Klebsiella pneumoniae [3])?
The MIC was 25 µg/mL.

What about the MIC (Pseudomonas aeruginosa [4]) of the same molecule?
The MIC was 25 µg/mL.

What about the MIC (Escherichia coli [5]) of the same molecule?
Its MIC is 25 µg/mL.

What about the MIC (Candida albicans) of the same molecule?
The MIC was 25 µg/mL.

With `COc1cc2[nH]c3c4c(c(C)cc3c2cc1OC)OC(C)(C)C=C4` as the molecule, how does the IC50 (Staphylococcus aureus [15]) read?
Its IC50 is 20.9 µM.

For `COC(=O)c1cc(O)c2[nH]c3ccc(O)c(CC=C(C)C)c3c2c1`, which MIC (Staphylococcus aureus [12]) is on record?
The MIC was 64 µg/mL (≈ 197 µM).

And the MIC (Staphylococcus aureus [13])?
Its MIC is 64 µg/mL (≈ 197 µM).

What about the MIC (Escherichia coli [14]) of the same molecule?
Its MIC is 64 µg/mL (≈ 197 µM).

And the MIC (Salmonella typhimurium)?
The MIC was 64 µg/mL (≈ 197 µM).

Which “inhibition zone (IZ)” value (Staphylococcus aureus [16]) does the source give for `O=C(O)c1cn(C2CC2)c2cc(N3CCNCC3)c(F)cc2c1=O` [CIPROFLOXACIN] here?
The value was 15 mm.

And the “inhibition zone (IZ)” value (Bacillus subtilis [17])?
The value was 15 mm.

Which MIC90 (Staphylococcus aureus [6]) does the source give for `NC[C@H]1O[C@H](O[C@H]2[C@H](O)[C@@H](O[C@H]3O[C@H](CO)[C@@H](O)[C@H](N)[C@H]3O)[C@H](N)C[C@@H]2N)[C@H](O)[C@@H](O)[C@@H]1O` [KANAMYCIN] here?
The MIC90 was 12.5 µg/mL (≈ 25.8 µM).

What about the MIC90 (Klebsiella pneumoniae [7]) of the same molecule?
Its MIC90 is 12.5 µg/mL (≈ 25.8 µM).

`O=C(CCn1c2c(c3ccccc31)CCCC2)N1C[C@H]2C[C@H](C1)c1cccc(=O)n1C2` was tested. Which MIC (Escherichia coli [10]) did it give?
The MIC was 42.1 µg/mL (≈ 101 µM).

Which results are given for `COC(=O)c1cc(O)c2[nH]c3ccc4c(c3c2c1)C=CC(C)(C)O4`?
MIC (Staphylococcus aureus [12]): 64 µg/mL (≈ 198 µM); MIC (Staphylococcus aureus [13]): 64 µg/mL (≈ 198 µM); MIC (Escherichia coli [14]): 64 µg/mL (≈ 198 µM); MIC (Salmonella typhimurium): 64 µg/mL (≈ 198 µM)

With `COc1ccc2[nH]c3c4c(c(C)cc3c2c1)OC(C)(C)C=C4` [KOENIMBINE] as the molecule, how does the IC50 (Staphylococcus aureus [15]) read?
Its IC50 is 17 µM.

With `Cc1cc2c([nH]c3ccc(O)cc32)c2c1OC(C)(C)C=C2` as the molecule, how does the MIC90 (Staphylococcus aureus [6]) read?
The MIC90 was 3.12 µg/mL (≈ 11.2 µM).

And the MIC90 (Klebsiella pneumoniae [7])?
Its MIC90 is 3.12 µg/mL (≈ 11.2 µM).

What about the MIC90 (Escherichia coli [8]) of the same molecule?
Its MIC90 is > 100 µg/mL.

And the MIC90 (Pseudomonas aeruginosa [9])?
Its MIC90 is > 100 µg/mL.

How did the MIC (Staphylococcus aureus [13]) turn out when `C=C(C)C1Cc2c(cc(OC)c3[nH]c4ccccc4c23)C(=O)O1` (stereo not given) [CLAUSAMINE B] was run?
Its MIC is 0.25 µg/mL (≈ 0.813 µM).

Which IC50 (Staphylococcus aureus [15]) does the source give for `CC(C)=CCC[C@@]1(C)C=Cc2c(ccc3c2[nH]c2ccc(C=O)cc23)O1` here?
Its IC50 is 11.7 µM.

With `COc1ccc2c(c1)[nH]c1cc(OC)c(C(=O)O)cc12` [CLAUSINE K] as the molecule, how does the “inhibition zone (IZ)” value (Pythium) read?
Its value is 16.2 mm.

For `CC(C)=CCc1c(O)c(C=O)cc2c1[nH]c1ccccc12` [HEPTAPHYLLINE], which “inhibition zone (IZ)” value (Staphylococcus aureus [16]) is on record?
The value was 14 mm.

What about the “inhibition zone (IZ)” value (Bacillus subtilis [17]) of the same molecule?
Its value is 12 mm.

— ChEMBL document CHEMBL5532637, “Antimicrobial activity of natural and semi-synthetic carbazole alkaloids” (Eur J Med Chem, 2023)
